Where no end group is shown, it is not given here.
Each substance was assayed on allergen specific T cells (assay: T cell proliferation assay (72 h) on donor derived T cell lines (TCL02/TCL03)). Conditions: T cell lines TCL-02 DK1, 30 donors; hit criteria SI>=2, CPM>=1000.
Format: cell-based, human
Method in brief: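 CD8-depleted PBMCs from grass-allergic donors stimulated with natural grass allergen mix (nPhl p 1 0.5 μg/ml) to raise T cell lines; restimulated with irradiated APCs, allergens or PHA-P (0.5 μg/ml) plus rIL-2. Proliferation to overlapping 20-mer and selected 15-mer grass peptides tested with TCL02 (day 24) or TCL03 (day 34).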
ASGYKDVDKPPFDGMTASGN-OH [compound 93] was tested, and the “Proliferation % donor coverage (TCL-02 DK1)” value (“Proliferation % donor coverage” for short) was 16.67%.
In the case of AVKPAAEEVKVIPAGELQVI-OH [compound 81], the “Proliferation % donor coverage” value is reported as 20.00%.
With AYKTAEGATPEAKYDAYVAT-OH [compound 79] the “Proliferation % donor coverage” value was 26.67%.
DGKARTAWVDSGAQLGELYY-OH [compound 54] was tested, and the “Proliferation % donor coverage” value was 26.67%.
In the case of DKYRTFVATFGAASNKAFAE-OH [compound 64], the “Proliferation % donor coverage” value is reported as 36.67%.
For EAAFNNAIKASTGGAYESYK-OH [compound 83], the “Proliferation % donor coverage” value was 10.00%.
EAKYDAYVATLSEALRIIAG-OH [compound 66] was tested, and the “Proliferation % donor coverage” value was 46.67%.
EGTKVTFHVEKGSNPNYLAL-OH [compound 24] was tested, and the “Proliferation % donor coverage” value was 36.67%.
With EIKSTKPEASSGEPVVVHIT-OH [compound 3] the “Proliferation % donor coverage” value was 36.67%.
For ELTLQFRRVKSKYPSGTKIT-OH [compound 102], the “Proliferation % donor coverage” value was 33.33%.
In the case of EPIFKDGLGSRASYEIKSKE-OH [compound 95], the “Proliferation % donor coverage” value is reported as 20.00%.
In the case of EQKLIEKINAGFKAALAAAA-OH [compound 62], the “Proliferation % donor coverage” value is reported as 36.67%.
With EVELREHGSDEWVAMTKGEG-OH [compound 33] the “Proliferation % donor coverage” value was 0.00%.
In the case of EWVAMTKGEGGVWTFDSEEP-OH [compound 27], the “Proliferation % donor coverage” value is reported as 13.33%.

Same assay, conditions: T cell lines TCL-02 DK1; strength of response (average relative magnitude)
With ASGYKDVDKPPFDGMTASGN-OH [compound 93] the “Proliferation strength (TCL-02 DK1)” value was 2.40.
With AVKPAAEEVKVIPAGELQVI-OH [compound 81] the “Proliferation strength (TCL-02 DK1)” value was 2.60.
For AYKTAEGATPEAKYDAYVAT-OH [compound 79], the “Proliferation strength (TCL-02 DK1)” value was 3.30.
With DGKARTAWVDSGAQLGELYY-OH [compound 54] the “Proliferation strength (TCL-02 DK1)” value was 4.20.
For DKYRTFVATFGAASNKAFAE-OH [compound 64], the “Proliferation strength (TCL-02 DK1)” value was 6.00.
With EAAFNNAIKASTGGAYESYK-OH [compound 83] the “Proliferation strength (TCL-02 DK1)” value was 0.90.
In the case of EAKYDAYVATLSEALRIIAG-OH [compound 66], the “Proliferation strength (TCL-02 DK1)” value is reported as 11.20.
EGTKVTFHVEKGSNPNYLAL-OH [compound 24] was tested, and the “Proliferation strength (TCL-02 DK1)” value was 7.40.
EIKSTKPEASSGEPVVVHIT-OH [compound 3] was tested, and the “Proliferation strength (TCL-02 DK1)” value was 3.40.
ELTLQFRRVKSKYPSGTKIT-OH [compound 102] was tested, and the “Proliferation strength (TCL-02 DK1)” value was 4.70.
In the case of EPIFKDGLGSRASYEIKSKE-OH [compound 95], the “Proliferation strength (TCL-02 DK1)” value is reported as 2.20.
In the case of EQKLIEKINAGFKAALAAAA-OH [compound 62], the “Proliferation strength (TCL-02 DK1)” value is reported as 6.20.
With EVELREHGSDEWVAMTKGEG-OH [compound 33] the “Proliferation strength (TCL-02 DK1)” value was 0.00.
For EWVAMTKGEGGVWTFDSEEP-OH [compound 27], the “Proliferation strength (TCL-02 DK1)” value was 2.30.

The substances below were run on release of IL-5 upon T cell activation (assay: Fluorospot assay, IL-5 release (DK1-TCL01, US1-TCL01)). Conditions: head prints TCL-02 DK1; text: 25 TCL-01 DK1 lines.
Format: cell-based, human
Description: (§1) Grass allergic donors were recruited (cohort DK1 including 30 grass allergic individuals, DK2 including 24 grass allergic individuals and US1 including 15 grass allergic individuals). PBMCs were isolated from freshly drawn heparinized blood by gradient centrifugation on lymphoprep (Nycomed, Norway), washed twice and re-suspended in RPMI 1640 medium with HEPES and ultraglutamine (Cambrex, Belgium) supplemented with 5% v/v human AB-serum (Cambrex, Belgium), 100 units/ml penicillin, and 0.1 mg/ml streptomycin (Sigma, St Louis, USA) (referred to as 5% AB-medium). Aliquots of the isolated PBMCs were frozen and were thawed later to stimulate the T cell lines. Additionally either fresh or thawed PBMCs were used as antigen presenting cells (APCs) in the proliferation assay as described later. In some cases the PBMCs were freezed at this stage and thawed later on to continue the experiment as described in the following. The isolated PBMCs (fresh or thawed) were CD8 depleted by MACS magnetic depletion according to the manufacturer's instructions (Miltenyi Biotec, Bergisch Gladbach, Germany). On day 0 the CD8-depleted PBMCs (2×10^6/ml) were stimulated in 1 ml bulk cultures in AB medium in 24 well plates (Nunc, Denmark) with the mixture of natural allergens: nPhl p 1 (0.5 μg/ml), mix of nPhl p 2/nPhl p 3 (1.0 μg/ml), nPhl p 4 (0.5 μg/ml), nPhl p 5 (0.5 μg/ml) and nCyn d 1 (0.5 μg/ml). Amount of 65 U, 30 U, and 30 U recombinant IL-2 (Chiron, USA) were added per well at days 5, 6 and 7, respectively. On day 14 cells were harvested to obtain T cell line generation 01 (referred to as TCL01).
(§2) On day 14 the T cells of TCL01 were isolated, washed and counted. The isolated T cells of TCL01 generation were used to perform either ELISpot or Fluorospot assay. TCL01 were further re-stimulated as described in the next paragraph for use in T cell proliferation. The aliquot for use in T cell proliferation was re-stimulated on day 14 to carry out proliferation experiment at day 24.
(§3) In the Fluorospot assays, release of IL-5 and IFN-γ upon T cell activation (of donor derived lines DK1-TCL01, and US1-TCL01) with a peptide or a peptide-mix described herein was measured by Fluorospot assay kit (Mabtech AB) and procedures were followed as per manufacturer's instructions. Briefly anti-human IL-5 and anti-human IFN-γ coated 96 well plates were obtained and blocked with 10% AB serum in RPMI. The plates were washed thoroughly and the isolated T cells were plated and incubated with either single peptides (2 μg/ml) or peptide mixes (2 μg/ml), or allergens nPhl p1, nPhl p 2, nPhl p 3, nPhl p 4, nPhl p 5, Cyn d 1 at 2 μg/ml for 20 hrs/37° C./5% CO2. After the incubation time the cells were removed by emptying the plate. Detection antibodies 7-B6-1-FS-FITC (1:200) and 5A10-biotin (2 μg/ml) were diluted in PBS-0.1% BSA and were added to the plate and incubated for 2 hours/room temperature (RT). There-after the plates were washed and anti-FITC-green (1:200) and SA-Red (1:200) diluted in PBS±0.1% BSA were added and incubated for 1 hour/RT/dark. After the incubation period the plates were washed, emptied and fluorescence enhancer solution was added for 15 minutes/RT. Plates were emptied, fluorescence enhancer solution was firmly tapped out against a clean paper, soft plastic under drain was removed and the plates were left in the dark to dry. The counts were inspected in a fluorospot reader. Hit criteria for peptide were 20 SFCs/10^6 PBMCs, p≤0.05 and poisson 0.05 stimulated cells compared to background, and a stimulation index (SI)≥2.
(§4) The peptides were identified as hits if they fulfilled the criteria as mentioned below where stimulation index (SI) value of 2 or above, Poisson value=<0.05 and P value=<0.05, SFC>=20 (IL-5/IFN-g)/10^6 cells and CPM>=1000 (proliferation) SI can be defined as [[…]/medium control] in a Fluorospot assay and [counts per minute (cpm)/medium control] in a proliferation assay.
For ASGYKDVDKPPFDGMTASGN-OH [compound 93], the “IL-5-Fluorospotr % donor coverage (TCL-02 DK1)” value was 0.00%.
With AVKPAAEEVKVIPAGELQVI-OH [compound 81] the “IL-5-Fluorospotr % donor coverage (TCL-02 DK1)” value was 0.00%.
With AYKTAEGATPEAKYDAYVAT-OH [compound 79] the “IL-5-Fluorospotr % donor coverage (TCL-02 DK1)” value was 0.00%.
DGKARTAWVDSGAQLGELYY-OH [compound 54] was tested, and the “IL-5-Fluorospotr % donor coverage (TCL-02 DK1)” value was 4.00%.
In the case of DKYRTFVATFGAASNKAFAE-OH [compound 64], the “IL-5-Fluorospotr % donor coverage (TCL-02 DK1)” value is reported as 16.00%.
In the case of EAAFNNAIKASTGGAYESYK-OH [compound 83], the “IL-5-Fluorospotr % donor coverage (TCL-02 DK1)” value is reported as 0.00%.
In the case of EAKYDAYVATLSEALRIIAG-OH [compound 66], the “IL-5-Fluorospotr % donor coverage (TCL-02 DK1)” value is reported as 20.83%.
In the case of EGTKVTFHVEKGSNPNYLAL-OH [compound 24], the “IL-5-Fluorospotr % donor coverage (TCL-02 DK1)” value is reported as 16.00%.
EIKSTKPEASSGEPVVVHIT-OH [compound 3] was tested, and the “IL-5-Fluorospotr % donor coverage (TCL-02 DK1)” value was 8.00%.
For ELTLQFRRVKSKYPSGTKIT-OH [compound 102], the “IL-5-Fluorospotr % donor coverage (TCL-02 DK1)” value was 4.00%.
For EPIFKDGLGSRASYEIKSKE-OH [compound 95], the “IL-5-Fluorospotr % donor coverage (TCL-02 DK1)” value was 0.00%.
EQKLIEKINAGFKAALAAAA-OH [compound 62] was tested, and the “IL-5-Fluorospotr % donor coverage (TCL-02 DK1)” value was 4.00%.
In the case of EVELREHGSDEWVAMTKGEG-OH [compound 33], the “IL-5-Fluorospotr % donor coverage (TCL-02 DK1)” value is reported as 0.00%.
In the case of EWVAMTKGEGGVWTFDSEEP-OH [compound 27], the “IL-5-Fluorospotr % donor coverage (TCL-02 DK1)” value is reported as 8.00%.

What follows are substances tested on release of IFN-γ upon T cell activation (assay: Fluorospot assay, IFN-γ release (DK1-TCL01, US1-TCL01)). Conditions: head prints TCL-02 DK1; 17 TCL-01 DK1 lines.
Format: cell-based, human
Description: as §1, §2, §3, §4
With ASGYKDVDKPPFDGMTASGN-OH [compound 93] the “IFN-gamma % donor coverage (TCL-02 DK1)” value was 0.00%.
In the case of AVKPAAEEVKVIPAGELQVI-OH [compound 81], the “IFN-gamma % donor coverage (TCL-02 DK1)” value is reported as 0.00%.
In the case of AYKTAEGATPEAKYDAYVAT-OH [compound 79], the “IFN-gamma % donor coverage (TCL-02 DK1)” value is reported as 0.00%.
DGKARTAWVDSGAQLGELYY-OH [compound 54] was tested, and the “IFN-gamma % donor coverage (TCL-02 DK1)” value was 4.00%.
For DKYRTFVATFGAASNKAFAE-OH [compound 64], the “IFN-gamma % donor coverage (TCL-02 DK1)” value was 0.00%.
With EAAFNNAIKASTGGAYESYK-OH [compound 83] the “IFN-gamma % donor coverage (TCL-02 DK1)” value was 0.00%.
In the case of EAKYDAYVATLSEALRIIAG-OH [compound 66], the “IFN-gamma % donor coverage (TCL-02 DK1)” value is reported as 0.00%.
With EGTKVTFHVEKGSNPNYLAL-OH [compound 24] the “IFN-gamma % donor coverage (TCL-02 DK1)” value was 4.00%.
For EIKSTKPEASSGEPVVVHIT-OH [compound 3], the “IFN-gamma % donor coverage (TCL-02 DK1)” value was 8.00%.
ELTLQFRRVKSKYPSGTKIT-OH [compound 102] was tested, and the “IFN-gamma % donor coverage (TCL-02 DK1)” value was 8.00%.
With EPIFKDGLGSRASYEIKSKE-OH [compound 95] the “IFN-gamma % donor coverage (TCL-02 DK1)” value was 4.00%.
EQKLIEKINAGFKAALAAAA-OH [compound 62] was tested, and the “IFN-gamma % donor coverage (TCL-02 DK1)” value was 0.00%.
For EVELREHGSDEWVAMTKGEG-OH [compound 33], the “IFN-gamma % donor coverage (TCL-02 DK1)” value was 0.00%.
With EWVAMTKGEGGVWTFDSEEP-OH [compound 27] the “IFN-gamma % donor coverage (TCL-02 DK1)” value was 4.00%.

Reference: patent US20180207228A1, “PEPTIDE COMBINATIONS AND USES THEREOF FOR TREATING GRASS ALLERGY” (ALK-Abelló A/S, priority 2015, published 2018)
